3 compounds from PMC7665123, “In Vitro Anti-Inflammatory Activity in Arthritic Synoviocytes of A. brachypoda Root Extracts and Its Unusual Dimeric Flavonoids” (Molecules, 2020) can be followed below.

Series [1] has as its system IL-6 release from IL-1β activated HFLS. Put plainly: IL-6 release by ELISA in IL-1β activated human fibroblast-like synoviocytes. It counts as cell-based. The settings on record: for inhibition at 25 µM: compounds at 25 µM = 13 µg/mL, read-out: Inhibition of IL-6 release at highest non-toxic concentration (%); for IC50: isolated compounds; for Fold higher activity (IC50) compared to compound 1 / DCMAB: IC50 comparison. How it is done:
Hip synovial membrane was collected from three male adult patients with clinical osteoarthritis (OA) at the time of hip replacement surgery. […] Once collected, tissue samples were processed, according to previously described protocols. […] After overnight culture, non-adherent cells were removed. At confluence, cells were trypsinized and passaged to 75 cm^2 culture flasks (Corning, NY, USA) in complete medium containing 10% fetal bovine serum. […] All cellular assays were performed from passage 3 to 9. Experiments were conducted twice per donor (n = 6).
All tested compounds were dissolved in a dimethyl sulfoxide (DMSO) stock solution and further diluted in culture medium. Final concentration of DMSO in vehicle of tested concentrations was 0.01%. After 1 h incubation, cells were activated by addition of IL-1β (1 µg/mL) (R&D Systems, Bio-Techne, Abingdon, UK) with subsequent incubation for 23 h. All supernatants were kept at −80 °C, before further testing. Remaining adherent cells were tested for viability using the cell proliferation reagent WST-1 (Roche, Basel, Switzerland), according to the supplier instructions. Pro-inflammatory cytokine IL-6 release in cell supernatant was assessed by ELISA. […] All samples were diluted 90 times. Experiments were conducted twice per donor (n = 6).
In this study, data are presented as mean values ± standard deviation (S.D.). All analyses were performed using GraphPad Prism 8.3 software. IC50 values were determined using a nonlinear fitting of a log (inhibitor concentration) vs response variable slope for each donor’s data set. Consequent values were then averaged. After confirming the data normal distribution and homogeneity of variances (Brown-Forsythe and Welch; Shapiro-Wilk, D’Agostino-Pearson and Anderson-Darling), statistical analysis was performed using a two-way ANOVA with a Bonferroni multiple comparisons test. Significance was determined at alpha level 0.05. Significance values represented are * p < 0.05, ** p < 0.009 and ns for non-significance.

Series [2] has as its system human fibroblast like synoviocytes (HFLS). Put plainly: In vitro cytotoxicity (WST-1 cell viability) in HFLS. The class given is cell-based. Conditions: 24 h, tested 3-100 µM. The method, then: Hip synovial membrane was collected from three male adult patients with clinical osteoarthritis (OA) at the time of hip replacement surgery. This protocol was conducted under the approval of the local Ethics Committee (CCER, Geneva, Switzerland) (Authorization #2017-02234) and with informed and consenting patients. Once collected, tissue samples were processed, according to previously described protocols. Briefly, samples were finely minced and digested for 3 h (37 °C, 5% CO2 incubation) in a 3 mg/mL collagenase IX-RPMI 1640 solution. After centrifugation (200× g) and supernatant removal, the resuspended pellet was cultured (37 °C, 5% CO2) in medium containing RPMI 1640, M199 (1:1), 1% penicillin/streptomycin (100 IU/mL:100 µg/mL), 2 mM L-glutamine and 20% fetal bovine serum. After overnight culture, non-adherent cells were removed. At confluence, cells were trypsinized and passaged to 75 cm^2 culture flasks (Corning, NY, USA) in complete medium containing 10% fetal bovine serum. A double control was performed to confirm presence of HFLS after isolation: visual morphology evaluation (Figure S3) and flow cytometry with synoviocyte specific surface markers ([…] and VCAM-1). […] All cellular assays were performed from passage 3 to 9. Experiments were conducted twice per donor (n = 6).
Confluent HFLS cells (25,000 cells/well) were treated in a 96-well plate with compounds 1, 2, and 3 (3 µM, 6 µM, 12 µM, 25 µM, 50 µM, and 100 µM), HEAB and DCMAB (increasing concentrations from 3 to 100 µg/mL), or control vehicle for 1 h. All tested compounds were dissolved in a dimethyl sulfoxide (DMSO) stock solution and further diluted in culture medium. Final concentration of DMSO in vehicle of tested concentrations was 0.01%. After 1 h incubation, cells were activated by addition of IL-1β (1 µg/mL) (R&D Systems, Bio-Techne, Abingdon, UK) with subsequent incubation for 23 h. All supernatants were kept at −80 °C, before further testing. […] Pro-inflammatory cytokine IL-6 release in cell supernatant was assessed by ELISA. […]

Where [3] appears, read: Homo sapiens, IL-1β activated HFLS, 24 h.
The mark [4] stands for this setting: Homo sapiens, IL-1β activated HFLS, 24 h, n = 6.
The mark [5] stands for this setting: Homo sapiens, µM values transformed into µg/mL.

Turning to `COc1cc(O)cc2c1C(C=Cc1ccccc1)C1C(c3ccccc3)Oc3cc(O)cc(OC)c3C1O2` (stereo not drawn) [Compound 3, brachydin C], the inhibition at 25 µM in series [1] (setting [3]) was determined as 94 ± 5%. The half-inhibitory concentration (IC50) in series [1] (setting [4]) came out at 19 ± 3 µM; in series [1] (setting [5]), 10 ± 3 µg/mL. The “Fold higher activity (IC50) compared to compound 1 / DCMAB” value in series [1] is 3 fold. Further, the “Concentration at which cytotoxicity / loss of viability occurs” value in series [2] turned out to be 50 µM.
Consider `COc1cc(O)cc2c1C(C=Cc1ccc(O)cc1)C1C(c3ccccc3)Oc3cc(O)cc(OC)c3C1O2` (stereo not drawn) [Compound 1, brachydin A], for which the inhibition at 50 µM in series [1] (Homo sapiens, 50 µM, non-significant) is 24%. Further, in series [1] (setting [3]), the inhibition at 25 µM came to 10 ± 11%. Besides, the 50% inhibitory concentration (IC50) is 62 ± 2 µM in series [1] (setting [4]) and 33 ± 2 µg/mL in series [1] (setting [5]). Besides, in series [2], the “Concentration at which cytotoxicity / loss of viability occurs” value came to 100 µM.
As to `COc1ccc(C=CC2c3c(OC)cc(O)cc3OC3c4c(OC)cc(O)cc4OC(c4ccccc4)C23)cc1` (stereo not drawn) [Compound 2, brachydin B], the inhibition at 25 µM in series [1] (setting [3]) was 80 ± 9%. Besides, the concentration for half-maximal inhibition (IC50) in series [1] (setting [4]) was 17 ± 3 µM; in series [1] (setting [5]) it was 9 ± 3 µg/mL. Besides, the “Fold higher activity (IC50) compared to compound 1 / DCMAB” value in series [1] stood at 3 fold. The “Concentration at which cytotoxicity / loss of viability occurs” value in series [2] was 50 µM.
